Assay: The drug is tested on Ruminococcus torques strain: ATCC27756 for biotransformation. The drug concentrations were measured before and after a 12-h incubation by liquid-chromatography-coupled mass spectrometry (LC–MS)
Format: ADME
Set-up: dose 2 uM, timepoint 0 vs 12 hours
Settings: 2 µM

Structure (SMILES) | Bacterial Biotransformation
Cc1nc(Nc2ncc(C(=O)Nc3c(C)cccc3Cl)s2)cc(N2CCN(CCO)CC2)n1.O [DASATINIB] | Compound NOT metabolized
NC(=O)N1c2ccccc2CC(=O)c2ccccc21 [OXCARBAZEPINE] | Compound metabolized
CCN(CC)C(=O)C1(c2ccccc2)CC1CN (stereo unspecified) | Compound NOT metabolized

Settings: enterocloster bolteae, 12 h, 2 µM
Description: The drug is tested on Clostridium bolteae strain: ATCCBAA-613 for biotransformation. The drug concentrations were measured before and after a 12-h incubation by liquid-chromatography-coupled mass spectrometry (LC–MS)

Structure (SMILES) | Bacterial Biotransformation
Cc1nc(Nc2ncc(C(=O)Nc3c(C)cccc3Cl)s2)cc(N2CCN(CCO)CC2)n1.O [DASATINIB] | Compound metabolized
NC(=O)N1c2ccccc2CC(=O)c2ccccc21 [OXCARBAZEPINE] | Compound NOT metabolized
CCN(CC)C(=O)C1(c2ccccc2)CC1CN (stereo unspecified) | Compound NOT metabolized

Assay: The drug is tested on Enterobacter cancerogenus strain: ATCC35316 for biotransformation. The drug concentrations were measured before and after a 12-h incubation by liquid-chromatography-coupled mass spectrometry (LC–MS)
Settings: 2 µM

Structure (SMILES) | Bacterial Biotransformation
Cc1nc(Nc2ncc(C(=O)Nc3c(C)cccc3Cl)s2)cc(N2CCN(CCO)CC2)n1.O [DASATINIB] | Compound NOT metabolized
NC(=O)N1c2ccccc2CC(=O)c2ccccc21 [OXCARBAZEPINE] | Compound metabolized
CCN(CC)C(=O)C1(c2ccccc2)CC1CN (stereo unspecified) | Compound NOT metabolized

Assay: The drug is tested on Coprococcus comes strain: ATCC27758 for biotransformation. The drug concentrations were measured before and after a 12-h incubation by liquid-chromatography-coupled mass spectrometry (LC–MS)
Format: ADME
Set-up: dose 2 uM, timepoint 0 vs 12 hours
Settings: 2 µM

Structure (SMILES) | Bacterial Biotransformation
Cc1nc(Nc2ncc(C(=O)Nc3c(C)cccc3Cl)s2)cc(N2CCN(CCO)CC2)n1.O [DASATINIB] | Compound NOT metabolized
NC(=O)N1c2ccccc2CC(=O)c2ccccc21 [OXCARBAZEPINE] | Compound NOT metabolized
CCN(CC)C(=O)C1(c2ccccc2)CC1CN (stereo unspecified) | Compound NOT metabolized

Assay: The drug is tested on Bacteroides coprophilus strain: DSM18228 for biotransformation. The drug concentrations were measured before and after a 12-h incubation by liquid-chromatography-coupled mass spectrometry (LC–MS)
Settings: 2 µM

Structure (SMILES) | Bacterial Biotransformation
Cc1nc(Nc2ncc(C(=O)Nc3c(C)cccc3Cl)s2)cc(N2CCN(CCO)CC2)n1.O [DASATINIB] | Compound NOT metabolized
NC(=O)N1c2ccccc2CC(=O)c2ccccc21 [OXCARBAZEPINE] | Compound metabolized
CCN(CC)C(=O)C1(c2ccccc2)CC1CN (stereo unspecified) | Compound NOT metabolized

Assay: The drug is tested on Clostridium asparagiforme strain: DSM15981 for biotransformation. The drug concentrations were measured before and after a 12-h incubation by liquid-chromatography-coupled mass spectrometry (LC–MS)
Format: ADME
Set-up: dose 2 uM, timepoint 0 vs 12 hours
Settings: enterocloster asparagiformis, 2 µM

Structure (SMILES) | Bacterial Biotransformation
Cc1nc(Nc2ncc(C(=O)Nc3c(C)cccc3Cl)s2)cc(N2CCN(CCO)CC2)n1.O [DASATINIB] | Compound NOT metabolized
NC(=O)N1c2ccccc2CC(=O)c2ccccc21 [OXCARBAZEPINE] | Compound NOT metabolized
CCN(CC)C(=O)C1(c2ccccc2)CC1CN (stereo unspecified) | Compound NOT metabolized

Assay: The drug is tested on Bacteroides ovatus strain: ATCC8483 for biotransformation. The drug concentrations were measured before and after a 12-h incubation by liquid-chromatography-coupled mass spectrometry (LC–MS)
Settings: 2 µM

Structure (SMILES) | Bacterial Biotransformation
Cc1nc(Nc2ncc(C(=O)Nc3c(C)cccc3Cl)s2)cc(N2CCN(CCO)CC2)n1.O [DASATINIB] | Compound NOT metabolized
NC(=O)N1c2ccccc2CC(=O)c2ccccc21 [OXCARBAZEPINE] | Compound NOT metabolized
CCN(CC)C(=O)C1(c2ccccc2)CC1CN (stereo unspecified) | Compound NOT metabolized

Assay: The drug is tested on Parabacteroides merdae strain: ATCC43184 for biotransformation. The drug concentrations were measured before and after a 12-h incubation by liquid-chromatography-coupled mass spectrometry (LC–MS)
Settings: 2 µM

Structure (SMILES) | Bacterial Biotransformation
Cc1nc(Nc2ncc(C(=O)Nc3c(C)cccc3Cl)s2)cc(N2CCN(CCO)CC2)n1.O [DASATINIB] | Compound NOT metabolized
NC(=O)N1c2ccccc2CC(=O)c2ccccc21 [OXCARBAZEPINE] | Compound NOT metabolized
CCN(CC)C(=O)C1(c2ccccc2)CC1CN (stereo unspecified) | Compound NOT metabolized

Assay: The drug is tested on Bacteroides pectinophilus strain: ATCC43243 for biotransformation. The drug concentrations were measured before and after a 12-h incubation by liquid-chromatography-coupled mass spectrometry (LC–MS)
Settings: 2 µM

Structure (SMILES) | Bacterial Biotransformation
Cc1nc(Nc2ncc(C(=O)Nc3c(C)cccc3Cl)s2)cc(N2CCN(CCO)CC2)n1.O [DASATINIB] | Compound NOT metabolized
NC(=O)N1c2ccccc2CC(=O)c2ccccc21 [OXCARBAZEPINE] | Compound metabolized
CCN(CC)C(=O)C1(c2ccccc2)CC1CN (stereo unspecified) | Compound NOT metabolized

Settings: bacteroides stercoris, 12 h, 2 µM
Description: The drug is tested on Bacteroides stercoris strain: ATCC43183 for biotransformation. The drug concentrations were measured before and after a 12-h incubation by liquid-chromatography-coupled mass spectrometry (LC–MS)

Structure (SMILES) | Bacterial Biotransformation
Cc1nc(Nc2ncc(C(=O)Nc3c(C)cccc3Cl)s2)cc(N2CCN(CCO)CC2)n1.O [DASATINIB] | Compound metabolized
NC(=O)N1c2ccccc2CC(=O)c2ccccc21 [OXCARBAZEPINE] | Compound metabolized
CCN(CC)C(=O)C1(c2ccccc2)CC1CN (stereo unspecified) | Compound NOT metabolized

Assay: The drug is tested on Eubacterium rectale strain: ATCC33656 for biotransformation. The drug concentrations were measured before and after a 12-h incubation by liquid-chromatography-coupled mass spectrometry (LC–MS)
Settings: agathobacter rectalis, 2 µM

Structure (SMILES) | Bacterial Biotransformation
Cc1nc(Nc2ncc(C(=O)Nc3c(C)cccc3Cl)s2)cc(N2CCN(CCO)CC2)n1.O [DASATINIB] | Compound NOT metabolized
NC(=O)N1c2ccccc2CC(=O)c2ccccc21 [OXCARBAZEPINE] | Compound metabolized
CCN(CC)C(=O)C1(c2ccccc2)CC1CN (stereo unspecified) | Compound NOT metabolized

Assay: The drug is tested on Bacteroides fragilis strain: HMW610 for biotransformation. The drug concentrations were measured before and after a 12-h incubation by liquid-chromatography-coupled mass spectrometry (LC–MS)
Settings: 2 µM

Structure (SMILES) | Bacterial Biotransformation
Cc1nc(Nc2ncc(C(=O)Nc3c(C)cccc3Cl)s2)cc(N2CCN(CCO)CC2)n1.O [DASATINIB] | Compound metabolized
NC(=O)N1c2ccccc2CC(=O)c2ccccc21 [OXCARBAZEPINE] | Compound NOT metabolized
CCN(CC)C(=O)C1(c2ccccc2)CC1CN (stereo unspecified) | Compound NOT metabolized

Assay: The drug is tested on Blautia luti strain: DSM14534 for biotransformation. The drug concentrations were measured before and after a 12-h incubation by liquid-chromatography-coupled mass spectrometry (LC–MS)
Format: ADME
Set-up: dose 2 uM, timepoint 0 vs 12 hours
Settings: 2 µM

Structure (SMILES) | Bacterial Biotransformation
Cc1nc(Nc2ncc(C(=O)Nc3c(C)cccc3Cl)s2)cc(N2CCN(CCO)CC2)n1.O [DASATINIB] | Compound NOT metabolized
NC(=O)N1c2ccccc2CC(=O)c2ccccc21 [OXCARBAZEPINE] | Compound metabolized
CCN(CC)C(=O)C1(c2ccccc2)CC1CN (stereo unspecified) | Compound NOT metabolized

Assay: The drug is tested on Subdoligranulum variabile strain: DSM15176 for biotransformation. The drug concentrations were measured before and after a 12-h incubation by liquid-chromatography-coupled mass spectrometry (LC–MS)
Settings: 2 µM

Structure (SMILES) | Bacterial Biotransformation
Cc1nc(Nc2ncc(C(=O)Nc3c(C)cccc3Cl)s2)cc(N2CCN(CCO)CC2)n1.O [DASATINIB] | Compound metabolized
NC(=O)N1c2ccccc2CC(=O)c2ccccc21 [OXCARBAZEPINE] | Compound NOT metabolized
CCN(CC)C(=O)C1(c2ccccc2)CC1CN (stereo unspecified) | Compound NOT metabolized

Assay: The drug is tested on Alistipes indistinctus strain: DSM22520 for biotransformation. The drug concentrations were measured before and after a 12-h incubation by liquid-chromatography-coupled mass spectrometry (LC–MS)
Settings: 2 µM

Structure (SMILES) | Bacterial Biotransformation
Cc1nc(Nc2ncc(C(=O)Nc3c(C)cccc3Cl)s2)cc(N2CCN(CCO)CC2)n1.O [DASATINIB] | Compound NOT metabolized
NC(=O)N1c2ccccc2CC(=O)c2ccccc21 [OXCARBAZEPINE] | Compound metabolized

Assay: The drug is tested on Bacteroides fragilis strain: ATCC43859 for biotransformation. The drug concentrations were measured before and after a 12-h incubation by liquid-chromatography-coupled mass spectrometry (LC–MS)
Settings: 2 µM

Structure (SMILES) | Bacterial Biotransformation
CCN(CC)C(=O)C1(c2ccccc2)CC1CN (stereo unspecified) | Compound NOT metabolized

Assay: The drug is tested on Edwardsiella tarda strain: ATCC23685 for biotransformation. The drug concentrations were measured before and after a 12-h incubation by liquid-chromatography-coupled mass spectrometry (LC–MS)
Settings: 2 µM

Structure (SMILES) | Bacterial Biotransformation
NC(=O)N1c2ccccc2CC(=O)c2ccccc21 [OXCARBAZEPINE] | Compound metabolized
CCN(CC)C(=O)C1(c2ccccc2)CC1CN (stereo unspecified) | Compound NOT metabolized

Assay: The drug is tested on Clostridium symbiosum strain: ATCC14940 for biotransformation. The drug concentrations were measured before and after a 12-h incubation by liquid-chromatography-coupled mass spectrometry (LC–MS)
Settings: 2 µM

Structure (SMILES) | Bacterial Biotransformation
Cc1nc(Nc2ncc(C(=O)Nc3c(C)cccc3Cl)s2)cc(N2CCN(CCO)CC2)n1.O [DASATINIB] | Compound NOT metabolized
NC(=O)N1c2ccccc2CC(=O)c2ccccc21 [OXCARBAZEPINE] | Compound metabolized
CCN(CC)C(=O)C1(c2ccccc2)CC1CN (stereo unspecified) | Compound NOT metabolized

Assay: The drug is tested on Dorea formicigenerans strain: ATCC27755 for biotransformation. The drug concentrations were measured before and after a 12-h incubation by liquid-chromatography-coupled mass spectrometry (LC–MS)
Settings: 2 µM

Structure (SMILES) | Bacterial Biotransformation
Cc1nc(Nc2ncc(C(=O)Nc3c(C)cccc3Cl)s2)cc(N2CCN(CCO)CC2)n1.O [DASATINIB] | Compound NOT metabolized
NC(=O)N1c2ccccc2CC(=O)c2ccccc21 [OXCARBAZEPINE] | Compound metabolized
CCN(CC)C(=O)C1(c2ccccc2)CC1CN (stereo unspecified) | Compound NOT metabolized

Assay: The drug is tested on Collinsella intestinalis strain: DSM13280 for biotransformation. The drug concentrations were measured before and after a 12-h incubation by liquid-chromatography-coupled mass spectrometry (LC–MS)
Settings: 2 µM

Structure (SMILES) | Bacterial Biotransformation
Cc1nc(Nc2ncc(C(=O)Nc3c(C)cccc3Cl)s2)cc(N2CCN(CCO)CC2)n1.O [DASATINIB] | Compound NOT metabolized
NC(=O)N1c2ccccc2CC(=O)c2ccccc21 [OXCARBAZEPINE] | Compound NOT metabolized
CCN(CC)C(=O)C1(c2ccccc2)CC1CN (stereo unspecified) | Compound NOT metabolized
